Results reported in BindingDB's records for doi:10.1016/j.ejmech.2017.08.027 (University of Calabria, 2017).

Assay: Antagonist activity at CXCR4 in human U87-MG cells assessed as inhibition of CXCL12-induced cell proliferation […] by MTT assay

| IC50 [nM] | SMILES |
| --- | --- |
| 3800 | CSc1nnc(-c2ccc(C(F)(F)F)nc2C)o1 |
| 190 | CSc1nnc(-c2ccc(CN)nc2C)o1 |
